# PMC5308240, “A Novel Toxin from Haplopelma lividum Selectively Inhibits the NaV1.8 Channel and Possesses Potent Analgesic Efficacy” (Toxins, 2016)
# Several values for one entry are separate records, joined by “and”; a condition that tells them apart may be missing. Identical values can stand only once.
# What was measured:
# mice [1] = experiment: Formalin-induced paw licking; settings: mouse, in vivo, ip
# Procedure: A formalin test was performed according to the method described by Owoyele et al.. Mice were intraperitoneally (i.p.) injected with test samples dissolved in 100 μL of saline and positive control animals were intraperitoneally injected with morphine dissolved in saline. The control group received the same volume of saline. Animals were injected with 20 μL of 5% formalin at the plantar surface of right hind paw after intraperitoneally injected with test samples. They were then placed into open polyvinyl cages (20 cm × 40 cm × 15 cm) individually. The time spent for licking the injected paw by each mouse was recorded by a digital video camera (early phase or neurogenic pain, 0–15 min post-injection and late phase or inflammatory pain, 15–30 min post-injection).
# (§1) The results are expressed as the mean ± standard error of the mean (SEM). Statistical significance was calculated using one- or two-way analysis of variance followed by the Student-Newman-Keuls and Bonferroni’s post hoc tests. Significance was defined as p < 0.05.
# mice [2] = experiment: Tail-flicking test; settings: mouse, in vivo, ip
# Procedure: Mice with pain threshold of 4–6 s were selected for the tail-flicking test. […] A photothermal pain detector (YLS-12A, Jinan, Shandong, China) was used to measure the pain threshold of mice subjected to intense heat and the light beam of the detector was focused on the middle of mouse tail. All of the animals were intraperitoneally injected with saline containing different concentrations of samples and control group received the same volume of saline. Tail withdrawal latency was measured as the time taken to withdraw the tail from the light beam.
# as §1
# mice [3] = experiment: Hot plate test; settings: mouse, in vivo
# Procedure: A hot plate apparatus (model HZ66-ZH-YLS-6B, Shanghai, China), maintained at 55 ± 1 °C, was used to test the pain in response to a thermal stimulus. Mice in the control condition showing initial nociceptive responses between 5 and 10 s were selected for the experiment. The latency to the sign of hind paw licking or jumping to avoid heat nociception was taken as the index of the nociceptive threshold. […] A group of mice treated with morphine dissolved in physiological saline was used as a positive control.
# as §1
smiles,measurement,setting,value
CN1CC[C@]23c4c5ccc(O)c4O[C@H]2[C@@H](O)C=C[C@H]3[C@H]1C5 [morphine],"paw licking time, early phase",mice [1],94 s and 71 s and 60 s
same,"paw licking time, late phase",mice [1],421 s and 275 s and 211 s
same,tail withdrawal latency,mice [2],6.8 s and 8.9 s and 11.3 s
same,hot plate latency,mice [3],12.5 s and 14.3 s and 18.6 s
